Experimental data published in US6379670B1, “Methods for treatment of multiple sclerosis using peptide analogs of human myelin basic protein” (Neurocrine Biosciences, Inc., priority 1994, dated 2002).
Non-standard residues stand in square brackets, D forms with d. No end group written: not given here.

Experiments:
[1] = test system: draining lymph node T cells of SJL mice; assay: Induction of Th2 response in SJL mice, ex vivo lymph node cell proliferation; design: species or system mouse
Description: SJL/J female mice (3 per group) were injected weekly on days 0, 7, 14 and 21 subcutaneously with 20 mg/kg of NBI-5788 in the flanks. On day 28, the mice were sacrificed, the draining lymph node removed, a single cell suspension was made and the ability of the cells to proliferate in response to 25 μM NBI-5788 was determined. The data, shown in FIG. 28, represent the mean of triplicate wells.

[2] = test system: peripheral blood mononuclear cells; assay: Frequency of antigen-reactive T cells in PBMC of untreated MS patients and healthy donors (split-well); assay type: cell-based, human; design: mean frequency of antigen-reactive T cells / frequency of antigen-reactive T cells in healthy subjects / antigen-reactive T cells, % Positive: concentration or dose not given beside the values
Description: Immune response to the peptide analog was assessed by measuring the frequency of proliferating peripheral blood T cells using a split-well microtiter method (i.e., number of positive wells {Δ cpm >1000, stimulation index>3} divided by the total number of wells assayed). Peripheral blood mononuclear cells (PBMC) were isolated from venous blood by Ficoll-Hypaque density gradient centrifugation, washed twice and resuspended in complete tissue culture medium (Iscove's modification of Dulbecco's medium containing 10% heat-inactivated, pooled, human A-B serum, 2 mM L-glutamine, 100 U/ml penicillin/streptomycin and 50 μg/ml gentamycin). PBMC from each patient were seeded at 10^5/well in 96 well, U-bottom microtiter plates containing 25 μg/ml whole MBP, 10 μg/ml NBI-5788 or medium alone in a volume of 200 μl. Three days later supernatants were collected and frozen at −80° C. and fresh medium containing IL-2 (10 U/ml) was added. IL-2-containg medium was refreshed on Day 7 and Day 11. On Day 14, the frequency of antigen response was determined by the “split well” technique. Briefly, cells from one primary well were split into replicate experimental wells in the presence of 10^5 freshly isolated autologous, irradiated peripheral blood mononuclear cells (APCs): one containing the original antigen (25 μg/ml) and one without antigen. Two days later supernatants were collected and the wells pulsed with 1 µCi/well [^3H]-thymidine ([…]) for the final 18 hours of culture. ^3H-Thymidine uptake was measured in a beta counter. […] The association between T cell frequency and NBI-5788 treatment was evaluated by χ^2 contingency analysis.

[3] = test system: Dr2b-restricted T cell clone 5F6; assay: Cytokine production (TNF-α, IFN-γ) by T cell clone 5F6, EIA; assay type: cell-based, human
Description: As discussed in detail below, the production of cytokines may also be assessed. In particular, TNF-α and IFN-γ production are especially interesting. These pro-inflammatory cytokines are thought to play a role in the pathogenesis of the disease. Briefly, T cell clone is incubated in the presence of stimulating MBP peptide and peptide analog or control peptide (SWM) or medium only. After a 24 hour incubation, the levels of TNF-α and IFN-γ in the supernatant are determined using commercially available EIA kits (Endogen, Cambridge, Mass.).
The ability of the peptide analog ligand to influence cytokine production was next measured. The Dr2b-restricted T cell clone 5F6 was incubated in the presence of 3 μM MBP peptide with either 10 μM of NBI-5788 (SEQ ID NO:7) or SWM or medium only. As a control, cells were cultured in the presence of medium alone. After 24 hours, supernatants were removed and the levels of tumor necrosis factor alpha (TNF-α) and interferon-y (IFN-γ) determined using commercially available EIA kits.

[4] = test system: Dr2b restricted human T cell clones reactive to MBP; assay: Human T cell proliferation, Dr2b restricted clones; assay type: cell-based
Description: Human T cells reactive to MBP (83-99) may alternatively be used to measure the ability of the peptide analog to inhibit proliferation of T cells induced by native MBP (83-99) peptide. MBP-specific T cells may be obtained as previously described by Martin et al., J. Immunol. 148:1359-1366, 1992. Briefly, T cell lines are established by culture of human T cells with irradiated, DR-matched peripheral blood cells in MEM supplemented with 2 mM L-glutamine, 50 μg/ml gentamicin, penicillin and streptomycin, 100 U/ml rIL-2, and 10% human AB negative serum. Proliferation of these T cell lines is stimulated by culturing a clone with varying concentration (1.1-30 μM) of native […] peptide, 50 μM of the peptide analog or SWM peptide, in the presence of irradiated, DR matched peripheral blood cells, following incubation for approximately 60 hours, the cells are pulsed with ^3H-thymidine for 12 hours and harvested. The amount of incorporated ^3H-thymidine is measured.
The ability of the peptide analogs NBI-5719, 5748, 5765, 5788 and 5789 (SEQ ID NOs: 4-8 respectively) to affect human T cell proliferation was assessed. A constant amount of peptide analog or the control peptide SWM (50 μM) was cultured with varying concentrations of native MBP(83-99) peptide (1.1-30 μM) in the presence of irradiated, DR matched peripheral blood cells and T cell clones derived from various MS patients. Human T cells (1×10^6) were cultured with DR matched, irradiated peripheral blood cells (PBL, 5×10^6) in medium containing IMDM supplemented with 3 μM MBP83-99, 2 mM L-glutamine, 50 μg/ml gentamicin penicillin/streptomycin, 100 U/ml r1L-2 and 10% human AB-negative serum. Cells were cultured for approximately 60 hours, pulsed with tritiated thymidine for 12 hours, and harvested. The amount of tritiated thymidine incorporated was measured, and the data represented as the mean plus or minus the standard error of the mean of replicate samples.
The ability of the peptide analog to inhibit the proliferative response of MBP-reactive T cells isolated from Dr2b (DrB1* 1501) individuals was determined. A constant amount of NBI-5788 (50 μM) was cultured with varying concentrations of native peptide (1.1-30 μM) in the presence of irradiated, DR matched peripheral blood cells and T cell clones derived from various MS patients.

[5] = subject MS-2, untreated MS patient
[6] = subject MS-3, untreated MS patient
[7] = subject MS-7, untreated MS patient
[8] = subject MS-8, untreated MS patient
[9] = subject MS-9, untreated MS patient
[10] = subject MS-10, untreated MS patient
[11] = subject MS-11, untreated MS patient

Substance: MBP(83-99) (83E>a, 84N>K, 89F>L, and 91K>A) ([dA]KPVVHLFANIVTPRTP) [NBI-5788]
- immune response induced by repeated dosing ([1]; 20 mg/kg subcutaneously on days 0, 7, 14 and 21, ex vivo proliferation to 25 μM NBI-5788, FIG. 28): induces a Th2 response
- response with successive weekly doses ([1]; four doses at weekly intervals): stronger response after each subsequent dose
- antigen-reactive T cells, Positive/total wells ([2]; Total of healthy donors): 0/96
- antigen-reactive T cells, Positive/total wells ([2]; Total of untreated MS patients): 19/308
- antigen-reactive T cells, % Positive ([2]; healthy donor HD-1): 0%
- antigen-reactive T cells, Positive/total wells ([2]; healthy donor HD-1): 0/48
- antigen-reactive T cells, % Positive ([2]; healthy donor HD-2): 0%
- antigen-reactive T cells, Positive/total wells ([2]; healthy donor HD-2): 0/48
- antigen-reactive T cells, % Positive [2, 5]: 6.8%
- antigen-reactive T cells, Positive/total wells [2, 5]: 3/44
- antigen-reactive T cells, % Positive [2, 6]: 2.3%
- antigen-reactive T cells, Positive/total wells [2, 6]: 1/44
- antigen-reactive T cells, % Positive [2, 7]: 6.8%
- antigen-reactive T cells, Positive/total wells [2, 7]: 3/44
- antigen-reactive T cells, % Positive [2, 8]: 11.4%
- antigen-reactive T cells, Positive/total wells [2, 8]: 5/44
- antigen-reactive T cells, % Positive [2, 9]: 9.1%
- antigen-reactive T cells, Positive/total wells [2, 9]: 4/44
- antigen-reactive T cells, % Positive [2, 10]: 4.5%
- antigen-reactive T cells, Positive/total wells [2, 10]: 2/44
- antigen-reactive T cells, % Positive [2, 11]: 2.3%
- antigen-reactive T cells, Positive/total wells [2, 11]: 1/44
- frequency of antigen-reactive T cells in healthy subjects ([2]; two healthy subjects, MBP-reactive cells detected in one of two): no NBI-5788-reactive T cells were detected
- mean frequency of antigen-reactive T cells ([2]; untreated MS patients (n=7)): 6.2±1.3%
- effect on MBP-stimulated production of TNF-α and IFN-γ ([3]; 10 μM peptide with 3 μM MBP peptide, to approximately levels with medium only): dramatically inhibited the production of both pro-inflammatory cytokines
- stimulation of cytokine production over background by the analog itself ([3]; even at concentrations of 50 μM (data not shown)): None
- inhibition of response of Dr2b T cell clones to MBP peptide ([4]; 50 μM, three different T cell lines, FIGS. 16-18): inhibited the ability of the T cell clones to respond to MBP peptide in a concentration dependent fashion
- inhibition of MBP-dependent proliferation of clone 5F6 ([4]; Dr2b restricted clone 5F6, 50 μM, FIG. 19): inhibited the MBP-dependent proliferation in a concentration dependent fashion
